Experimental data from ChEMBL document CHEMBL1629535, “Novel small molecule inhibitors of MDR Mycobacterium tuberculosis by NMR fragment screening of antigen 85C” (2010).
≈ marks a conversion by molar mass, not a printed value. Calls of active or inactive are those of the source. The calls are words filed in the database; no cut-off is given here.

What was measured:
[1] = target: Diacylglycerol acyltransferase/mycolyltransferase Ag85C (Mycobacterium tuberculosis) (UniProt P9WQN9); assay: Binding affinity to substrate binding site of multidrug resistance Mycobacterium tuberculosis antigen 85C by NMR assay
Diacylglycerol acyltransferase/mycolyltransferase Ag85C (Mycobacterium tuberculosis), sequence (P9WQN9 whole entry): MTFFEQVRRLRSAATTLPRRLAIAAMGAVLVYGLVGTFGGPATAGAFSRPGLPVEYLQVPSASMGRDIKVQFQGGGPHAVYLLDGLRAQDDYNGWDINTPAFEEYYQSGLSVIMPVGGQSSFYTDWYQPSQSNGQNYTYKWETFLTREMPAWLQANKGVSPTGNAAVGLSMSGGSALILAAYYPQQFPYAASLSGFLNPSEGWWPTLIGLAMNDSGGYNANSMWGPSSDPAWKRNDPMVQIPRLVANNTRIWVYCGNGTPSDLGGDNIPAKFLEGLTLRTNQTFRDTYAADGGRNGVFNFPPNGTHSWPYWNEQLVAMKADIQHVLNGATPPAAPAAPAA

[2] = system: Mycobacterium tuberculosis; assay: Growth inhibition of multidrug resistance Mycobacterium tuberculosis 2745/09; type: functional

Structure (SMILES) | Activity [1] | MIC [2]
COC(=O)c1c(N)sc2c1CCCC2 | Active | –
CCCOc1ccc2nc(N)sc2c1 | – | 20 µg/mL (≈ 96 µM)
CCC1CCc2c(sc(N)c2C#N)C1 (stereo not drawn) | Active | 50 µg/mL (≈ 242 µM)
CC1CCc2c(sc(N)c2C(N)=O)C1 (stereo not drawn) | Active | –
CC(=O)c1c(N)sc2c1CCCC2 | Active | –
CCC1(C)Cc2c(sc(N)c2C#N)CO1 (stereo not drawn) | inactive | –
CCC1CCc2c(sc(N)c2C(N)=O)C1 (stereo not drawn) | Active | –
CCN1CCc2c(sc(N)c2C#N)C1 | inactive | –
CC(C)C(=O)Nc1sc2c(c1C#N)CCCC2 | inactive | –
CC1(C)Cc2c(sc(N)c2C#N)CO1 | inactive | –
CC1CCc2c(sc(N)c2C#N)C1 (stereo not drawn) | Active | –
N#Cc1c(N)sc2c1CCCCC2 | Active | 500 µg/mL (≈ 2600 µM)
O=c1[nH]c(-c2ccncc2)nc2sc3c(c12)CCCC3 | inactive | –
CC(=O)Nc1sc2c(c1C#N)CCCC2 | inactive | –
N#Cc1c(N)sc2c1CCCC2 | Active | –
CCCC1CCc2c(sc(N)c2C(N)=O)C1 (stereo not drawn) | Active | –
N#Cc1c(N)sc2c1C1CCN2CC1 | inactive | –
Nc1sc2c(c1C(=O)NCc1ccccc1)CCCC2 | inactive | –
CCCC1CCc2c(sc(N)c2C#N)C1 (stereo not drawn) | Active | 50 µg/mL (≈ 227 µM)
CCOC(=O)c1c(N)sc2c1C(C)CCC2 (stereo not drawn) | Active | –
